Measurements as given in ChEMBL document CHEMBL1127824, “6,6-Disubstituted Hex-5-enoic acid derivatives as combined thromboxane A2 receptor antagonists and synthetase inhibitors” (J Med Chem, 1994).
Several values for one entry are separate records, joined by “and”; a condition that tells them apart may be missing. Equal values may be shown once.

Experiments:
Thromboxane-A synthase = target: T1, Thromboxane-A synthase (Homo sapiens, UniProt P24557)
T1 sequence (P24557 whole entry): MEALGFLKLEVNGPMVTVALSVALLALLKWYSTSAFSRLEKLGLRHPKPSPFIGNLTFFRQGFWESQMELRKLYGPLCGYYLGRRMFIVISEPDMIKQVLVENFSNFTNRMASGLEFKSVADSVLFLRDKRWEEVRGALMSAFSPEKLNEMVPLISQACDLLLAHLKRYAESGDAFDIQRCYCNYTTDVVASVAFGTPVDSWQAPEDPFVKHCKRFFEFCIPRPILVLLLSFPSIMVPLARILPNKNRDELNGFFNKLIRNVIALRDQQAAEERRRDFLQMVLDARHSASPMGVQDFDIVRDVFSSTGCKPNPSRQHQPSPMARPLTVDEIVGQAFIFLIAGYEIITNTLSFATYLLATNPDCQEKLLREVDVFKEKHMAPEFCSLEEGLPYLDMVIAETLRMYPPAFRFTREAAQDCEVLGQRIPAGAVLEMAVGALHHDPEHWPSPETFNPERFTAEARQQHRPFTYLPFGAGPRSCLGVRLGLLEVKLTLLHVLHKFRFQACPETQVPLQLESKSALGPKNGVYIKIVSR
Description: Inhibition test of thromboxane A2 synthetase in human gel-filtered platelets.

Thromboxane A2 receptor = target: T2, Thromboxane A2 receptor (Homo sapiens, UniProt P21731)
T2 sequence (P21731 whole entry): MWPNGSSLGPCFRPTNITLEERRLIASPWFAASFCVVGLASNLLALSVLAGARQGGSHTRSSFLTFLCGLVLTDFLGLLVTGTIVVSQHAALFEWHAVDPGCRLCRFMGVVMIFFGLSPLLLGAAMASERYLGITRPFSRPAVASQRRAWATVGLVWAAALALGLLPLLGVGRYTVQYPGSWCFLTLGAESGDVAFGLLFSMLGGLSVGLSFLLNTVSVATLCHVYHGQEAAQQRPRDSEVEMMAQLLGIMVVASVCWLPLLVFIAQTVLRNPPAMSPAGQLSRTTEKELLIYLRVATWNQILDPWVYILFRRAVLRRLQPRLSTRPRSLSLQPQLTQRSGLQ

Homo sapiens = organism: Homo sapiens; test: tissue or blood; type: functional, organism-based; settings: Plasma
Description: Inhibition of collagen-induced platelet aggregation in human platelet-rich plasma.

IC50 (Thromboxane-A synthase)	IC50 (Thromboxane A2 receptor)	EC50 (Homo sapiens) [nM]	Structure (SMILES)
5 nM	33 nM	700	Cc1ccc(S(=O)(=O)NCCc2ccc(/C(=C\CCCC(=O)O)c3cccnc3)cc2)cc1
98 nM	74 nM	12000	O=C(O)CCCC(c1ccc(CCNS(=O)(=O)c2ccc(Cl)cc2)cc1)c1cccnc1 (stereo not drawn)
44 nM	300 nM	40000	CN(C)C(=O)CCC/C=C(\c1ccc(CCNS(=O)(=O)c2ccc(Cl)cc2)cc1)c1cccnc1
5 nM	21 nM	3800	O=C(O)CCC/C=C(/c1cccnc1)c1cccc(CNS(=O)(=O)c2ccc(Cl)cc2)c1
4 nM	230 nM	1100	Cn1c(CCNS(=O)(=O)c2ccc(F)cc2)ccc1/C(=C\CCCC(=O)O)c1cccnc1
33 nM	36 nM	11000	COC(=O)CCC/C=C(\c1ccc(CCNS(=O)(=O)c2ccc(Cl)cc2)cc1)c1cccnc1
5 nM	270 nM	> 100000	O=C(O)CCC/C=C(\c1ccc(NS(=O)(=O)c2ccc(Cl)cc2)cc1)c1cccnc1
4 nM	12 nM	1700	O=C(O)CCC/C=C(/c1cccnc1)c1cccc(CCNS(=O)(=O)c2ccc(Cl)cc2)c1
21 nM	42 nM	36000	O=C(O)CC/C=C(\c1ccc(CCNS(=O)(=O)c2ccc(Cl)cc2)cc1)c1cccnc1
24 nM	19 nM	1500	O=C(O)CCCC/C=C(\c1ccc(CCNS(=O)(=O)c2ccc(Cl)cc2)cc1)c1cccnc1
60 nM	26 nM	4300	O=C(O)CCO/N=C(\c1ccc(CCNS(=O)(=O)c2ccc(Cl)cc2)cc1)c1cccnc1
5 nM	52 nM	10000	COc1ccc(S(=O)(=O)NCCc2ccc(/C(=C\CCCC(=O)O)c3cccnc3)cc2)cc1
46 nM	28 nM	> 100000	O=C(O)CCC/C=C(\c1ccc(CCN(Cc2ccc(C(=O)O)cc2)S(=O)(=O)c2ccc(Cl)cc2)cc1)c1cccnc1
27 nM	130 nM	52000	O=C(O)c1ccc(/C=C(\c2ccc(CCNS(=O)(=O)c3ccc(Cl)cc3)cc2)c2cccnc2)cc1
15 nM	25 nM	24000	CN(CCc1ccc(/C(=C\CCCC(=O)O)c2cccnc2)cc1)S(=O)(=O)c1ccc(Cl)cc1
8 nM	13 nM	5000	O=C(O)CCC/C=C(/c1cccnc1)c1ccc2c(c1)CCC(NS(=O)(=O)c1ccc(Cl)cc1)C2 (stereo not drawn)
5 nM	260 nM	5300	O=C(O)CCC/C=C(\c1ccc(CCNS(=O)(=O)Cc2ccccc2)cc1)c1cccnc1
250 nM	170 nM	24000	CNC(=O)CCC/C=C(\c1ccc(CCNS(=O)(=O)c2ccc(Cl)cc2)cc1)c1cccnc1
43 nM	62 nM	11000	O=C(O)CCC/C=C(\c1ccc(CCN(Cc2ccccc2)S(=O)(=O)c2ccc(Cl)cc2)cc1)c1cccnc1
39 nM	94 nM	28000	NC(=O)CCC/C=C(\c1ccc(CCNS(=O)(=O)c2ccc(Cl)cc2)cc1)c1cccnc1
1000 nM	12 nM	37000	O=C(O)C/C=C(\c1ccc(CCNS(=O)(=O)c2ccc(Cl)cc2)cc1)c1cccnc1
21 nM	1200 nM	9500	O=C(O)CCC/C=C(\c1ccc(CCNC(=O)Cc2ccccc2)cc1)c1cccnc1
7 nM	55 nM	5000	O=C(O)CCC/C=C(\c1ccc(CNS(=O)(=O)c2ccc(Cl)cc2)cc1)c1cccnc1
1 nM	9 nM	560	O=C(O)CCC/C=C(/c1cccnc1)c1ccc2c(c1)CC(NS(=O)(=O)c1ccc(F)cc1)C2 (stereo not drawn)
310 nM	61 nM	44000	O=C(O)CCC/C=C(\c1ccc(CCN(CC(=O)O)S(=O)(=O)c2ccc(Cl)cc2)cc1)c1cccnc1

IC50 (Thromboxane-A synthase)	IC50 (Thromboxane A2 receptor)	EC50 (Homo sapiens) [nM]	Structure (SMILES)
2 nM	84 nM	1200	O=C(O)CCCCC(c1ccc(CCNS(=O)(=O)c2ccc(Cl)cc2)cc1)c1cccnc1 (stereo not drawn)
21 nM	12 nM	9500	O=S(=O)(NCCc1ccc(/C(=C\CCCc2nnn[nH]2)c2cccnc2)cc1)c1ccc(Cl)cc1
19 nM	42 nM	30000	Cc1cc(C)c(S(=O)(=O)NCCc2ccc(/C(=C\CCCC(=O)O)c3cccnc3)cc2)c(C)c1
4 nM	100 nM	30000	O=C(O)c1cccc(/C=C(\c2ccc(CCNS(=O)(=O)c3ccc(Cl)cc3)cc2)c2cccnc2)c1
4 nM and 8 nM	1700 nM and 5200 nM	16000	O=C(O)CCCCO/N=C(/c1cccnc1)c1cccc(C(F)(F)F)c1 [RIDOGREL]
4 nM	33 nM	13000	CCN(CCc1ccc(/C(=C\CCCC(=O)O)c2cccnc2)cc1)S(=O)(=O)c1ccc(Cl)cc1
2700 nM	1200 nM	> 100000	Cc1ccc(S(=O)(=O)NCCc2ccc(/C(=C\C(=O)O)c3cccnc3)cc2)cc1
5 nM	1100 nM	3400	CCCCS(=O)(=O)NCCc1ccc(/C(=C\CCCC(=O)O)c2cccnc2)cc1
31 nM	210 nM	1200	O=C(O)CCCCCC(c1ccc(CCNS(=O)(=O)c2ccc(Cl)cc2)cc1)c1cccnc1 (stereo not drawn)
7 nM	60 nM	40000	O=C(O)CCC/C=C(/c1cccnc1)c1cccc(NS(=O)(=O)c2ccc(Cl)cc2)c1
5 nM	340 nM	16000	COc1ccc(S(=O)(=O)NCCc2ccc(/C(=C\CCCC(=O)O)c3cccnc3)cc2)cc1OC
5 nM	49 nM	9200	NC(=O)CN(CCc1ccc(/C(=C\CCCC(=O)O)c2cccnc2)cc1)S(=O)(=O)c1ccc(Cl)cc1
6 nM and 4 nM	6 nM	5800	O=C(O)CCC(CCCCNS(=O)(=O)c1ccc(Cl)cc1)CCCc1cccnc1 (stereo not drawn)
4 nM	58 nM	21000	O=C(O)CCC/C=C(\c1ccc(CCN(CCN2CCOCC2)S(=O)(=O)c2ccc(Cl)cc2)cc1)c1cccnc1
6 nM	28 nM	2800	O=C(O)CCC/C=C(\c1ccc(CCNS(=O)(=O)c2ccc(C(F)(F)F)cc2)cc1)c1cccnc1
5 nM	81 nM	3400	O=C(O)CCC/C=C(\c1ccc(CCNS(=O)(=O)c2ccccc2)cc1)c1cccnc1
45000 nM	1100 nM	> 100000	O=C(O)CCC/C=C(\c1ccc(CCNS(=O)(=O)c2ccc(Cl)cc2)cc1)c1ccc[n+]([O-])c1
25 nM	51 nM	> 100000	CC(C)N(CCc1ccc(/C(=C\CCCC(=O)O)c2cccnc2)cc1)S(=O)(=O)c1ccc(Cl)cc1
24 nM	330 nM	47000	O=C(O)CCC/C=C(\CCCNS(=O)(=O)c1ccc(Cl)cc1)c1cccnc1
150 nM	200 nM	60000	CC(C)(C)OC(=O)CCC/C=C(\c1ccc(CCNS(=O)(=O)c2ccc(Cl)cc2)cc1)c1cccnc1
15000 nM	3000 nM	> 100000	Cc1ccc(S(=O)(=O)NCCc2ccc(/C(=C\C(=O)NCC(=O)O)c3cccnc3)cc2)cc1
43 nM	210 nM	55000	O=C(O)CCC/C=C(\c1ccc(CCNC(=O)c2ccc(Cl)cc2)cc1)c1cccnc1
100 nM	120 nM	> 100000	O=C(O)CCC/C=C(\c1ccc(CCN(CCC(=O)O)S(=O)(=O)c2ccc(Cl)cc2)cc1)c1cccnc1
4 nM	66 nM	3100	O=C(O)CCC/C=C(\c1ccc(CCNS(=O)(=O)c2ccc(F)cc2)cc1)c1cccnc1

Structure (SMILES)	IC50 (Thromboxane-A synthase)	IC50 (Thromboxane A2 receptor)	EC50 (Homo sapiens) [nM]
O=C(O)CCC/C=C(/c1ccc(CCNS(=O)(=O)c2ccc(Cl)cc2)cc1)c1cccnc1	490 nM	380 nM	43000
O=C(O)CCC/C=C(\c1ccc(CCNS(=O)(=O)c2ccc(Cl)cc2)cc1)c1cccnc1 [SAMIXOGREL]	4 nM	19 nM	1000
